Measured values reported in patent publication US9326986B2, “Quinazolinone, quinolone and related analogs as sirtuin modulators” (GLAXOSMITHKLINE LLC, priority 2008, dated 2016).

The molecules below were run against T1, SIRT1 (Homo sapiens, UniProt Q96EB6) (assay: Mass spectrometry based assay to identify modulators of SIRT1 activity (deacetylation of p53-based acetylated peptide)). Details: 10 nM SIRT1, 0.5 μM peptide substrate, 120 μM βNAD+, 25 minutes at 25° C.
T1 sequence (Q96EB6 1-747): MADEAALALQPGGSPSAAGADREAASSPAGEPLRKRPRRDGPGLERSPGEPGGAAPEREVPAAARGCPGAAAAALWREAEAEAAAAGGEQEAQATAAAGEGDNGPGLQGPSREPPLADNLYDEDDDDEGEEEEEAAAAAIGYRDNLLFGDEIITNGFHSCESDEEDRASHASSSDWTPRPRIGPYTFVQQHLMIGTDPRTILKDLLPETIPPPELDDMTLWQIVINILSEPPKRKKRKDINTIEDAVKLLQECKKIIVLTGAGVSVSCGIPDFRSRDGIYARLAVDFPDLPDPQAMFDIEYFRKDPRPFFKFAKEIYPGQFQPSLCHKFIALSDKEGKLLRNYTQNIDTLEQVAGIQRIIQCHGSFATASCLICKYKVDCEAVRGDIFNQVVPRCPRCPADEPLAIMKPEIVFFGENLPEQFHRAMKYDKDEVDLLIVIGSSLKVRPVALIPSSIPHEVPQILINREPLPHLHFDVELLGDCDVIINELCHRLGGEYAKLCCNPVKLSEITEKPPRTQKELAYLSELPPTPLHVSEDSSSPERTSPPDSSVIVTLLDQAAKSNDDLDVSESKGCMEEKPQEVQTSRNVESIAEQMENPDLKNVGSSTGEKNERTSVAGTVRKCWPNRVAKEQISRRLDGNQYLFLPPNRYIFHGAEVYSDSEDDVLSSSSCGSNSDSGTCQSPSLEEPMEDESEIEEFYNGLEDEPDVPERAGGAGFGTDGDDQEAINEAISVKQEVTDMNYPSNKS
Format: biochemical

% Fold Act. (percent maximum fold activation)	Structure (SMILES)
B (Fold Activation<200%)	Cn1cnc(-c2nc3c(C(=O)Nc4ccccn4)cccc3c(=O)n2C)c1 [Compound 261]
A (Fold activation>200%)	O=C(Nc1cccnc1)c1cccc2c(=O)cc(-c3ccccc3Cl)[nH]c12 [Compound 441]
A (Fold activation>200%)	Cc1cc(C(=O)Nc2cccc3c(=O)cc(-c4cccc(C(F)(F)F)c4)[nH]c23)n(C)n1 [Compound 410]
A (Fold activation>200%)	Cn1c(-c2cccc(C(F)(F)F)c2)nc2c(NC(=O)c3cccnc3OCC(O)CO)cccc2c1=O (centres unmarked) [Compound 334]
A (Fold activation>200%)	Cn1c(-c2cccc(C(F)(F)F)c2)nc2c(C(=O)Nc3ccc(OCC(O)CO)cc3)cccc2c1=O (centres unmarked) [Compound 273]
A (Fold activation>200%)	O=C(Nc1cccc2c(=O)cc(-c3cccc(C(F)(F)F)c3)[nH]c12)c1cccc(CN2CCOCC2)n1 [Compound 448]
B (Fold Activation<200%)	Cn1c(-c2cccc(C(F)(F)F)c2)nc2c(NC(=O)c3cncnc3)cccc2c1=O [Compound 241]
A (Fold activation>200%)	Cn1cncc1C(=O)Nc1cccc2c(=O)n(C)c(-c3cccc(C(F)(F)F)c3)nc12 [Compound 236]
B (Fold Activation<200%)	Cn1c(-c2ccncn2)nc2c(NC(=O)c3cnccn3)cccc2c1=O [Compound 280]
A (Fold activation>200%)	Cn1c(-c2cccc(C(F)(F)F)c2)nc2c(C(=O)Nc3cccc(OC[C@@H](O)CO)n3)cccc2c1=O [Compound 356]
B (Fold Activation<200%)	Cn1c(C2CCCC2)nc2c(C(=O)Nc3ccccn3)cccc2c1=O [Compound 214]
A (Fold activation>200%)	Cn1c(-c2cccc(C(F)(F)F)c2)nc2c(C(=O)Nc3ccnc(CN4CCNCC4)n3)cccc2c1=O [Compound 347]
B (Fold Activation<200%)	Cn1c(-c2ccc(Cl)cc2)nc2c(C(=O)Nc3ccccn3)cccc2c1=O [Compound 244]
A (Fold activation>200%)	Cn1c(-c2ccccc2S(C)(=O)=O)nc2c(C(=O)Nc3ccccn3)cccc2c1=O [Compound 221]
B (Fold Activation<200%)	Cn1c(-c2ncccn2)nc2c(NC(=O)c3cnccn3)cccc2c1=O [Compound 282]
B (Fold Activation<200%)	O=C(Nc1cccc2c(=O)[nH]c(-c3cccc(C(F)(F)F)c3)nc12)c1cnccn1 [Compound 231]
A (Fold activation>200%)	Cn1c(-c2ccccc2OC(F)(F)F)nc2c(NC(=O)c3cnccn3)cccc2c1=O [Compound 274]
B (Fold Activation<200%)	Cn1c(-c2cscn2)nc2c(NC(=O)c3cnccn3)cccc2c1=O [Compound 283]
A (Fold activation>200%)	Cn1c(-c2cccc(C(F)(F)F)c2)nc2c(NC(=O)c3cccc(OCC(O)CO)n3)cccc2c1=O (centres unmarked) [Compound 335]
B (Fold Activation<200%)	Cn1ccnc1-c1nc2c(C(=O)Nc3ccccn3)cccc2c(=O)n1C [Compound 227]
B (Fold Activation<200%)	Cn1c(-c2ccc(C#N)cc2)nc2c(C(=O)Nc3ccccn3)cccc2c1=O [Compound 254]

% Fold Act. (percent maximum fold activation)	Structure (SMILES)
B (Fold Activation<200%)	Cn1c(-c2cccc(C(F)(F)F)c2)nc2c(NC(=O)c3cccc(N4CCCC4)c3)cccc2c1=O [Compound 337]
B (Fold Activation<200%)	Cn1c(-c2cccc(C(F)(F)F)c2)nc2c(C(=O)Nc3nccs3)cccc2c1=O [Compound 205]
A (Fold activation>200%)	CCc1nnc(NC(=O)c2cccc3c(=O)n(C)c(-c4cccc(C(F)(F)F)c4)nc23)s1 [Compound 294]
A (Fold activation>200%)	Cn1ccnc1C(=O)Nc1cccc2c(=O)n(C)c(-c3cccc(C(F)(F)F)c3)nc12 [Compound 238]
A (Fold activation>200%)	Cn1c(-c2cccc(C(F)(F)F)c2)nc2c(NC(=O)c3cccc(CN4CCCC4)n3)cccc2c1=O [Compound 333]
B (Fold Activation<200%)	CN1CCCCC1C(=O)Nc1cccc2c(=O)n(C)c(-c3cccc(C(F)(F)F)c3)nc12 (centres unmarked) [Compound 343]
A (Fold activation>200%)	Cn1c(-c2cccc(C(F)(F)F)c2)nc2c(C(=O)Nc3cncc(CN4CCOCC4)c3)cccc2c1=O [Compound 300]
B (Fold Activation<200%)	Cn1c(-c2cccnc2)nc2c(C(=O)Nc3ccccn3)cccc2c1=O [Compound 256]
B (Fold Activation<200%)	Cn1ccc(-c2nc3c(C(=O)Nc4ccccn4)cccc3c(=O)n2C)n1 [Compound 228]
B (Fold Activation<200%)	CCCn1c(-c2cccc(C(F)(F)F)c2)nc2c(C(=O)Nc3ccccn3)cccc2c1=O [Compound 270]
B (Fold Activation<200%)	Cn1c(-c2ccncc2)nc2c(NC(=O)c3cnccn3)cccc2c1=O [Compound 279]
A (Fold activation>200%)	Cn1c(-c2cccc(C(F)(F)F)c2)nc2c(C(=O)Nc3cccnc3)cccc2c1=O [Compound 265]
A (Fold activation>200%)	Cn1c(-c2ccccc2OC(F)(F)F)nc2c(C(=O)Nc3ccccn3)cccc2c1=O [Compound 213]
A (Fold activation>200%)	O=C(Nc1cccc2c(=O)cc(-c3ccccc3C(F)(F)F)[nH]c12)c1cscn1 [Compound 444]
B (Fold Activation<200%)	Cn1c(-c2cccc(C(F)F)c2)nc2c(C(=O)Nc3ccccn3)cccc2c1=O [Compound 323]
B (Fold Activation<200%)	Cn1c(-c2ccccn2)nc2c(C(=O)Nc3ccccn3)cccc2c1=O [Compound 255]
A (Fold activation>200%)	Cn1cnc(C(=O)Nc2cccc3c(=O)n(C)c(-c4cccc(C(F)(F)F)c4)nc23)c1 [Compound 246]
A (Fold activation>200%)	O=C(Nc1cccc2c(=O)cc(-c3cccc(C(F)(F)F)c3)[nH]c12)c1cccc(F)n1 [Compound 424]
A (Fold activation>200%)	Cn1c(-c2cccc(C(F)(F)F)c2)nc2c(NC(=O)c3cnccn3)cccc2c1=O [Compound 202]
A (Fold activation>200%)	O=C(Nc1cccnc1)c1cccc2c(=O)cc(-c3ccccc3OC(F)F)[nH]c12 [Compound 440]
B (Fold Activation<200%)	Cn1c(-c2ccc(OC(F)(F)F)cc2)nc2c(C(=O)Nc3ccccn3)cccc2c1=O [Compound 211]

Structure (SMILES)	% Fold Act. (percent maximum fold activation)
O=C(NC1CN2CCC1CC2)c1cccc2c(=O)cc(-c3cccc(C(F)(F)F)c3)[nH]c12 (centres unmarked) [Compound 414]	A (Fold activation>200%)

Same assay, conditions: SIRT1 activation; 10 nM SIRT1, 0.5 μM peptide substrate, 120 μM βNAD+, 25 minutes at 25° C.

EC1.5 μM	Structure (SMILES)
C (EC1.5>25 μM)	Cn1cnc(-c2nc3c(C(=O)Nc4ccccn4)cccc3c(=O)n2C)c1 [Compound 261]
B (EC1.5 1-25 μM)	O=C(Nc1cccnc1)c1cccc2c(=O)cc(-c3ccccc3Cl)[nH]c12 [Compound 441]
A (EC1.5<1.0 μM)	Cc1cc(C(=O)Nc2cccc3c(=O)cc(-c4cccc(C(F)(F)F)c4)[nH]c23)n(C)n1 [Compound 410]
B (EC1.5 1-25 μM)	Cn1c(-c2cccc(C(F)(F)F)c2)nc2c(NC(=O)c3cccnc3OCC(O)CO)cccc2c1=O (centres unmarked) [Compound 334]
A (EC1.5<1.0 μM)	Cn1c(-c2cccc(C(F)(F)F)c2)nc2c(C(=O)Nc3ccc(OCC(O)CO)cc3)cccc2c1=O (centres unmarked) [Compound 273]
A (EC1.5<1.0 μM)	O=C(Nc1cccc2c(=O)cc(-c3cccc(C(F)(F)F)c3)[nH]c12)c1cccc(CN2CCOCC2)n1 [Compound 448]
C (EC1.5>25 μM)	Cn1c(-c2cccc(C(F)(F)F)c2)nc2c(NC(=O)c3cncnc3)cccc2c1=O [Compound 241]
B (EC1.5 1-25 μM)	Cn1cncc1C(=O)Nc1cccc2c(=O)n(C)c(-c3cccc(C(F)(F)F)c3)nc12 [Compound 236]
C (EC1.5>25 μM)	Cn1c(-c2ccncn2)nc2c(NC(=O)c3cnccn3)cccc2c1=O [Compound 280]
A (EC1.5<1.0 μM)	Cn1c(-c2cccc(C(F)(F)F)c2)nc2c(C(=O)Nc3cccc(OC[C@@H](O)CO)n3)cccc2c1=O [Compound 356]
C (EC1.5>25 μM)	Cn1c(C2CCCC2)nc2c(C(=O)Nc3ccccn3)cccc2c1=O [Compound 214]
A (EC1.5<1.0 μM)	Cn1c(-c2cccc(C(F)(F)F)c2)nc2c(C(=O)Nc3ccnc(CN4CCNCC4)n3)cccc2c1=O [Compound 347]
C (EC1.5>25 μM)	Cn1c(-c2ccc(Cl)cc2)nc2c(C(=O)Nc3ccccn3)cccc2c1=O [Compound 244]
B (EC1.5 1-25 μM)	Cn1c(-c2ccccc2S(C)(=O)=O)nc2c(C(=O)Nc3ccccn3)cccc2c1=O [Compound 221]
C (EC1.5>25 μM)	Cn1c(-c2ncccn2)nc2c(NC(=O)c3cnccn3)cccc2c1=O [Compound 282]
C (EC1.5>25 μM)	O=C(Nc1cccc2c(=O)[nH]c(-c3cccc(C(F)(F)F)c3)nc12)c1cnccn1 [Compound 231]
A (EC1.5<1.0 μM)	Cn1c(-c2ccccc2OC(F)(F)F)nc2c(NC(=O)c3cnccn3)cccc2c1=O [Compound 274]
C (EC1.5>25 μM)	Cn1c(-c2cscn2)nc2c(NC(=O)c3cnccn3)cccc2c1=O [Compound 283]
A (EC1.5<1.0 μM)	Cn1c(-c2cccc(C(F)(F)F)c2)nc2c(NC(=O)c3cccc(OCC(O)CO)n3)cccc2c1=O (centres unmarked) [Compound 335]
C (EC1.5>25 μM)	Cn1ccnc1-c1nc2c(C(=O)Nc3ccccn3)cccc2c(=O)n1C [Compound 227]
C (EC1.5>25 μM)	Cn1c(-c2ccc(C#N)cc2)nc2c(C(=O)Nc3ccccn3)cccc2c1=O [Compound 254]

EC1.5 μM	Structure (SMILES)
C (EC1.5>25 μM)	Cn1c(-c2cccc(C(F)(F)F)c2)nc2c(NC(=O)c3cccc(N4CCCC4)c3)cccc2c1=O [Compound 337]
B (EC1.5 1-25 μM)	Cn1c(-c2cccc(C(F)(F)F)c2)nc2c(C(=O)Nc3nccs3)cccc2c1=O [Compound 205]
A (EC1.5<1.0 μM)	CCc1nnc(NC(=O)c2cccc3c(=O)n(C)c(-c4cccc(C(F)(F)F)c4)nc23)s1 [Compound 294]
B (EC1.5 1-25 μM)	Cn1ccnc1C(=O)Nc1cccc2c(=O)n(C)c(-c3cccc(C(F)(F)F)c3)nc12 [Compound 238]
A (EC1.5<1.0 μM)	Cn1c(-c2cccc(C(F)(F)F)c2)nc2c(NC(=O)c3cccc(CN4CCCC4)n3)cccc2c1=O [Compound 333]
C (EC1.5>25 μM)	CN1CCCCC1C(=O)Nc1cccc2c(=O)n(C)c(-c3cccc(C(F)(F)F)c3)nc12 (centres unmarked) [Compound 343]
B (EC1.5 1-25 μM)	Cn1c(-c2cccc(C(F)(F)F)c2)nc2c(C(=O)Nc3cncc(CN4CCOCC4)c3)cccc2c1=O [Compound 300]
C (EC1.5>25 μM)	Cn1c(-c2cccnc2)nc2c(C(=O)Nc3ccccn3)cccc2c1=O [Compound 256]
B (EC1.5 1-25 μM)	Cn1ccc(-c2nc3c(C(=O)Nc4ccccn4)cccc3c(=O)n2C)n1 [Compound 228]
C (EC1.5>25 μM)	CCCn1c(-c2cccc(C(F)(F)F)c2)nc2c(C(=O)Nc3ccccn3)cccc2c1=O [Compound 270]
C (EC1.5>25 μM)	Cn1c(-c2ccncc2)nc2c(NC(=O)c3cnccn3)cccc2c1=O [Compound 279]
B (EC1.5 1-25 μM)	Cn1c(-c2cccc(C(F)(F)F)c2)nc2c(C(=O)Nc3cccnc3)cccc2c1=O [Compound 265]
B (EC1.5 1-25 μM)	Cn1c(-c2ccccc2OC(F)(F)F)nc2c(C(=O)Nc3ccccn3)cccc2c1=O [Compound 213]
A (EC1.5<1.0 μM)	O=C(Nc1cccc2c(=O)cc(-c3ccccc3C(F)(F)F)[nH]c12)c1cscn1 [Compound 444]
C (EC1.5>25 μM)	Cn1c(-c2cccc(C(F)F)c2)nc2c(C(=O)Nc3ccccn3)cccc2c1=O [Compound 323]
C (EC1.5>25 μM)	Cn1c(-c2ccccn2)nc2c(C(=O)Nc3ccccn3)cccc2c1=O [Compound 255]
A (EC1.5<1.0 μM)	Cn1cnc(C(=O)Nc2cccc3c(=O)n(C)c(-c4cccc(C(F)(F)F)c4)nc23)c1 [Compound 246]
A (EC1.5<1.0 μM)	O=C(Nc1cccc2c(=O)cc(-c3cccc(C(F)(F)F)c3)[nH]c12)c1cccc(F)n1 [Compound 424]
A (EC1.5<1.0 μM)	Cn1c(-c2cccc(C(F)(F)F)c2)nc2c(NC(=O)c3cnccn3)cccc2c1=O [Compound 202]
B (EC1.5 1-25 μM)	O=C(Nc1cccnc1)c1cccc2c(=O)cc(-c3ccccc3OC(F)F)[nH]c12 [Compound 440]
C (EC1.5>25 μM)	Cn1c(-c2ccc(OC(F)(F)F)cc2)nc2c(C(=O)Nc3ccccn3)cccc2c1=O [Compound 211]

Structure (SMILES)	EC1.5 μM
O=C(NC1CN2CCC1CC2)c1cccc2c(=O)cc(-c3cccc(C(F)(F)F)c3)[nH]c12 (centres unmarked) [Compound 414]	B (EC1.5 1-25 μM)
